Source: article PMC8071193, “Dual-Target Compounds against Type 2 Diabetes Mellitus: Proof of Concept for Sodium Dependent Glucose Transporter (SGLT) and Glycogen Phosphorylase (GP) Inhibitors” (Pharmaceuticals, 2021)
Where two headings read alike, the source gives them in different places.

Key:
[1] = target: T1, SGLT2 (Homo sapiens, UniProt P31639); experiment: SGLT2 inhibition, 2-NBDG glucose uptake in SGLT2-overexpressing TSA201 cells; assay type: cell-based
T1 construct: host or cells: TSA201 (Human Embryonal Kidney) cells, lentiviral transduction, puromycin selection
T1 sequence (P31639 1-672): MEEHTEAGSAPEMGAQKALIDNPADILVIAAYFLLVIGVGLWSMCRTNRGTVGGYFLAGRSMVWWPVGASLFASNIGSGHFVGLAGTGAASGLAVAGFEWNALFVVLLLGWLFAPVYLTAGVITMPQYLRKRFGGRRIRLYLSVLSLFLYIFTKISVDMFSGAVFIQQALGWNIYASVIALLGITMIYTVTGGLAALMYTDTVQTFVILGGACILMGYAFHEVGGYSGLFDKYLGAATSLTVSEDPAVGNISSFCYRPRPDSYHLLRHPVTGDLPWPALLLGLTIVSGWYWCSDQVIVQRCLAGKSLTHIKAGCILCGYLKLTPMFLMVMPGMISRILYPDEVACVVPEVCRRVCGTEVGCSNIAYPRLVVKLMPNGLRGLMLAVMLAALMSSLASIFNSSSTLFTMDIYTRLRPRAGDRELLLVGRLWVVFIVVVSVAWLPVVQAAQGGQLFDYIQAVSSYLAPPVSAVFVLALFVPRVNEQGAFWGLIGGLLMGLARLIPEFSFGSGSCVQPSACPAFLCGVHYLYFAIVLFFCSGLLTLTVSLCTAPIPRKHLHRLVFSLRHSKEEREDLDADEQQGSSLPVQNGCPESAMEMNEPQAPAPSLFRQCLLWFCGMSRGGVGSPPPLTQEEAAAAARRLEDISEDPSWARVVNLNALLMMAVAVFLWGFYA
Description: (§1) Cells (100,000 cells, TSA201) were plated into each well of a 24-well plate and incubated overnight at 37 °C. […] Two wells were treated only with hexadimetrine bromide as a control. After 24 h of transfection, the medium was changed to fresh medium without antibiotics. Cells were collected and transferred into T-25 flasks after 3 days. On the fifth day, 10 µg/mL puromycin was added to select only the transfected cells. The nontransfected cells cannot survive this high concentration of antibiotic. To keep up the selection, the medium including 10 µg/mL puromycin was replaced every two days. The cells lived under puromycin pressure until the day of the experiments.
(§2) TSA201 cells (25,000) with and without overexpressed SGLT1 or 2 were put into poly-L-lysine (P5999, Sigma-Aldrich, St. Luis, MO, USA) treated wells of a 96-well plate. The next day, the cells were starved for 1 h with 90 µL glucose-free medium (D5036-10X1L Sigma-Aldrich, St. Luis, MO, USA) (with or without inhibitor). After starving, cells were treated with 100 µM 2-NBDG and incubated for 30 min (again with or without inhibitor). The incubation time of cells with possible inhibitors was 90 min altogether. After incubation, the medium was removed, the wells were washed with PBS twice, lysed with 100 µL lysis buffer (0.1 M KH2PO4 + 1% Triton-x, pH = 11), and stored at -20°C. […] Subsequently, the protein concentration was measured and NBDG uptake was normalized to protein amount.
(§3) After selecting optimal concentrations, each compound was tested at four different concentrations. […] To determine the specific effects of the compounds on SGLT1 or 2, the glucose uptake values in TSA201 cells without SGLT overexpression were subtracted from the values in TSA201 cell overexpressing SGLT. […] All calculations were prepared using the GraphPad Prism software (GraphPad Software, Inc., SanDiego, CA, USA). The data were plotted on a logarithmic scale as a function of inhibitor concentration. The IC50 values were calculated by non-linear regression analysis from sigmoidal dose-response curves. The results of kinetic experiments were calculated from at least three independent experiments. Each experiment contained four parallel samples that were averaged. The standard deviations were calculated based on the average values for the independent experiments.

[2] = target: T2, SGLT1 (Homo sapiens, UniProt P13866); experiment: SGLT1 inhibition, 2-NBDG glucose uptake in SGLT1-overexpressing TSA201 cells; assay type: cell-based
T2 construct: host or cells: TSA201 (Human Embryonal Kidney) cells, lentiviral transduction, puromycin selection
T2 sequence (P13866 1-664): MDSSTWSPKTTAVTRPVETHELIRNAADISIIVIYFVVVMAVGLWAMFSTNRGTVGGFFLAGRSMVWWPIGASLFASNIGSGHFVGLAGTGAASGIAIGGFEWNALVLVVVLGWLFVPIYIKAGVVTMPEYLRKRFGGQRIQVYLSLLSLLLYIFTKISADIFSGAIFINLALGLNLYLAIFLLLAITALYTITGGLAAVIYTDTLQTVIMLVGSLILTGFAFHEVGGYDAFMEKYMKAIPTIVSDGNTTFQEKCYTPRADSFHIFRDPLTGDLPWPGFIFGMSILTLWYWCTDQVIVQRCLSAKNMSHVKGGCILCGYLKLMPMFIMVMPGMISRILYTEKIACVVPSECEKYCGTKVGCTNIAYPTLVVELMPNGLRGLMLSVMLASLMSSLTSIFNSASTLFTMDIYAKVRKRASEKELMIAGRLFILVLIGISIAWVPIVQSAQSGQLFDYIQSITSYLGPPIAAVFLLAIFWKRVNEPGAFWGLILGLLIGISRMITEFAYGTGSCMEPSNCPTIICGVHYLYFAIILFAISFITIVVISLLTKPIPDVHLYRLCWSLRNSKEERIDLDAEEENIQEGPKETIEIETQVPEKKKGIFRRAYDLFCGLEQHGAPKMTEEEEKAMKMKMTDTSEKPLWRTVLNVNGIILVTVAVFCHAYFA
Description: as §1, §2, §3

[3] = target: T3, rabbit muscle glycogen phosphorylase b (rmGPb) (Oryctolagus cuniculus, UniProt P00489); conditions: Table 3; NI: no inhibition at 625 µM; cited from earlier work
T3 construct: Glycogen phosphorylase b was isolated from rabbit skeletal muscle; from tissue; host or cells: rabbit skeletal muscle
T3 sequence (P00489 1-843): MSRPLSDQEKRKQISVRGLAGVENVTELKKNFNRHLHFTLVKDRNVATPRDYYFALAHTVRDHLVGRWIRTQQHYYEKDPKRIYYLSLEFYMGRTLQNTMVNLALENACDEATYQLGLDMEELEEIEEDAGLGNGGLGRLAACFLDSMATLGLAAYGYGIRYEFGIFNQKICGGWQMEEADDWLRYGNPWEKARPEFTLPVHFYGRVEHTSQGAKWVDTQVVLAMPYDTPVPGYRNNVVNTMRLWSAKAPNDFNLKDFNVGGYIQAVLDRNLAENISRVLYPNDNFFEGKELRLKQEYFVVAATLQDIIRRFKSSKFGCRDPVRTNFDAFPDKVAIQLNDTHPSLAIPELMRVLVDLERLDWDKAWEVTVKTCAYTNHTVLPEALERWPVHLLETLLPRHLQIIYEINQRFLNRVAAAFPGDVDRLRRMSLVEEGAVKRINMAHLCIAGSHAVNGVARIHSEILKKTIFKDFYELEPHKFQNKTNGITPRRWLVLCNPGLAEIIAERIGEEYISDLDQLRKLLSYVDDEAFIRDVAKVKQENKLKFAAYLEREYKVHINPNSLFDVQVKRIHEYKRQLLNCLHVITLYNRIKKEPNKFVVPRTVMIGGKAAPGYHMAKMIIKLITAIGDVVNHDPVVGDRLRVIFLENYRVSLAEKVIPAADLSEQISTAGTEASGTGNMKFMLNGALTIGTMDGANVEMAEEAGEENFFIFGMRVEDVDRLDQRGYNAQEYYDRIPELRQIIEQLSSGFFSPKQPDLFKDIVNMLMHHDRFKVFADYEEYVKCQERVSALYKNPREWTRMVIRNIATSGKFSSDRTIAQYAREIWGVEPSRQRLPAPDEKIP

[4] = system: sodium dependent glucose cotransporter (SGLT2); design: method as in earlier work; conditions: ref 19 (1), 35 (2), 36 (3), 37 (4), 38 (5), 34 (6), cited from earlier work; for IC50: Table 1, read-out: IC50 against SGLT2; for selectivity SGLT2/SGLT1: Table 1, value in brackets
[5] = target: T3, rabbit muscle glycogen phosphorylase b (rmGPb); experiment: Glycogen phosphorylase b enzyme kinetic inhibition assay (direction of glycogen synthesis); assay type: biochemical; conditions: Table 2; at 625 µM
Description: The 2-NBDG (2-deoxy-2-[(7-nitro-2,1,3-benzoxadiazol-4-yl)amino]-D-glucose, cat. 11046) was purchased from Cayman Chemical Company (Ann Arbor, MI, USA). Lentivirus for SLC5A1 and SLC5A2 (NM_000343 for SGLT1, and NM-003041 for SGLT2) were obtained from Origene (Rockville, MD, USA). These expression vectors contain a puromycin resistance gene. […] CyQUANT^TM Cell Proliferation Assay Kit (2036547) was from Invitrogen (Carlsbad, CA, USA). Glycogen phosphorylase b was isolated from rabbit skeletal muscle according to the method of Fischer and Krebs.
Enzyme activity in the direction of glycogen synthesis was assayed. Kinetic data were collected using the muscle phosphorylase b (dephosphorylated, GPb) isoform. […] Enzymatic activities were presented in the form of a double-reciprocal plot (Lineweaver-Burk). The plots were analysed by a non-linear data analysis program. The inhibitor constants (Ki) were determined by secondary plots, replotting the slopes from the Lineweaver-Burk plot against the inhibitor concentrations. The means of standard errors for all calculated kinetic parameters averaged to less than 10% [78, 79].

[6] = Table 3, TSA-201 cells, NI: no inhibition at 1000 µM

In the case of `OC[C@H]1O[C@@H](c2cn(-c3ccccc3)nn2)[C@H](O)[C@@H](O)[C@@H]1O` [22a], the IC50 [1, 6] is given as 9.1 ± 2.94 µM, the IC50 [2, 6] is given as 242 ± 37.9 µM and the Ki [3] is given as > 625 µM.

In the case of `OC[C@H]1O[C@@H](c2cn(-c3ccc4ccccc4c3)nn2)[C@H](O)[C@@H](O)[C@@H]1O` [22b], the IC50 [1, 6] is listed as 111 ± 27.6 µM, the IC50 [2, 6] is listed as 23.8 ± 5.72 µM and the Ki [3] is listed as > 625 µM.

For `O=C(CCc1ccc(O)cc1)c1c(O)cc(O)cc1O[C@@H]1O[C@H](CO)[C@@H](O)[C@H](O)[C@H]1O` [compound 1, phlorizin], the IC50 [4] is listed as 0.033 µM.

In the case of `Cc1ccc([C@@H]2O[C@H](CO)[C@@H](O)[C@H](O)[C@H]2O)cc1Cc1ccc(-c2ccc(F)cc2)s1` [compound 4, canagliflozin], the “selectivity SGLT2/SGLT1” value [4] is given as 414 and the IC50 [4] is given as 0.0022 µM.

In the case of `OC[C@H]1O[C@@H](c2ccc(F)c(Cc3cc4ccccc4s3)c2)[C@H](O)[C@@H](O)[C@@H]1O` [compound 5, ipragliflozin], the “selectivity SGLT2/SGLT1” value [4] is given as 254 and the IC50 [4] is given as 0.0074 µM.

For `OC[C@H]1O[C@@H](c2nc(Cc3ccccc3)c[nH]2)[C@H](O)[C@@H](O)[C@@H]1O` [compound 18, 4(5)-Benzyl-2-(β-D-glucopyranosyl)imidazole], the IC50 [1] was 3.57 ± 0.42 µM, the “times more effective (SGLT2 inhibition)” value ([1]; compared to 1,2,4-triazole 19a) was ~ 20 times and the IC50 [2] was 11.7 ± 2.48 µM. It also gave an inhibition at 625 µM [5] of 12%.
